Assay results from PubChem BioAssay (NCI).
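Results reflect a 48-hour exposure of cells in 96-well plates to compound at five concentrations. The concentration for full growth arrest is given as TGI.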

Experiments:
Assay in all cases: growth of human tumour cells (NCI), 48 h
[1] = test system: U251 CNS
[2] = test system: KM12 colon
[3] = test system: OVCAR-5 ovarian
[4] = test system: 786-0 renal
[5] = test system: HCC-2998 colon
[6] = test system: OVCAR-3 ovarian
[7] = test system: MDA-MB-435
[8] = test system: RXF 393 renal
[9] = test system: UO-31 renal
[10] = test system: SK-MEL-5 melanoma
[11] = test system: A498 renal
[12] = test system: MDA-MB-231 breast
[13] = test system: SNB-75 CNS
[14] = test system: SW-620 colon
[15] = test system: SF-268 CNS
[16] = test system: BT-549 breast
[17] = test system: SK-OV-3 ovarian
[18] = test system: PC-3 prostate

| Structure (SMILES) | TGI [1] | TGI [2] | TGI [3] | TGI [4] | TGI [5] | TGI [6] | TGI [7] | TGI [8] | TGI [9] | TGI [10] | TGI [11] | TGI [12] | TGI [13] | TGI [14] | TGI [15] | TGI [16] | TGI [17] | TGI [18] |
| --- | --- | --- | --- | --- | --- | --- | --- | --- | --- | --- | --- | --- | --- | --- | --- | --- | --- | --- |
| Cc1ccc(S(=O)(=O)N2CCNCCN(S(=O)(=O)c3ccc(C)cc3)CCNCC2)cc1 | 41.1 µM | 42.1 µM | > 100 µM | 33.7 µM | 33.4 µM | 27.7 µM | 36.4 µM | 14.7 µM | 62.6 µM | 29.9 µM | 47 µM | 60.4 µM | 42.8 µM | > 100 µM | 55 µM | 47.1 µM | 41.1 µM |  |
| C=C1C(=O)O[C@H]2C1C[C@H](O)[C@@]1(C)OC1CC[C@@]1(C)O[C@H]21 (stereo partly drawn) | > 100 µM | 55.1 µM | 31.5 µM | 37.1 µM | 28.5 µM |  | 53.2 µM | 46.9 µM | 31 µM | 35.4 µM |  |  | > 100 µM | 33.2 µM | 95.7 µM | 26.9 µM | > 100 µM | 39.1 µM |
| Cc1ccc(S(=O)(=O)N/N=C2/CCC3(O)CC2(C)CCC2[C@H]3CC2(C)C)cc1 (stereo partly drawn) | 36 µM | > 100 µM | 78.1 µM | > 100 µM |  | > 100 µM | 57.7 µM |  | 68.6 µM | 33.1 µM |  |  | 87.3 µM | > 100 µM | > 100 µM | 86.4 µM | > 100 µM | 65.1 µM |
| CO/C(=N\N=C\c1ccc(Cl)c(Cl)c1)c1ccncc1 | > 10 µM | > 10 µM | > 10 µM | > 10 µM | > 10 µM | > 10 µM |  | > 10 µM | > 10 µM | > 10 µM |  |  | > 10 µM | > 10 µM | > 10 µM |  | > 10 µM | > 10 µM |
| O=C(/C=C/c1ccccc1O)c1ccccc1Cl | > 100 µM | > 100 µM | > 100 µM | > 100 µM | > 100 µM | > 100 µM |  | > 100 µM | > 100 µM | > 100 µM | > 100 µM |  | 68.8 µM | > 100 µM | > 100 µM |  | > 100 µM |  |
| CCCCCCCCC(O)c1ccc(/C=C\C(O)CCCC(=O)O)s1 (stereo not drawn) | > 100 µM | > 100 µM | > 100 µM | > 100 µM | > 100 µM | > 100 µM |  | > 100 µM | > 100 µM | > 100 µM |  |  | > 100 µM | > 100 µM | > 100 µM |  | > 100 µM |  |
| Cc1ccc(-c2cc(-c3ccccc3)c(C#N)c(=O)[nH]2)cc1 | > 100 µM | > 100 µM | > 100 µM | > 100 µM | > 100 µM | > 100 µM |  | > 100 µM | > 100 µM | > 100 µM | > 100 µM |  | > 100 µM | > 100 µM | > 100 µM |  | > 100 µM |  |
| COc1cc([C@@H]2c3cc4c(cc3[C@@H](Nc3ccc(Cl)cc3C(=O)c3ccccc3)[C@H]3COC(=O)[C@H]23)OCO4)cc(OC)c1OC | 0.576 µM |  | > 100 µM | > 100 µM |  | > 100 µM |  |  | > 100 µM | 16 µM | 5.27 µM | > 100 µM |  | > 100 µM | > 100 µM | > 100 µM | > 100 µM |  |
